According to article PMC11992225, “Antibacterial compounds against non-growing and intracellular bacteria” (npj Antimicrobials and Resistance, 2025):
In brackets after ≈: the same amount, converted by molar mass.

Experiments:
[1] = system: E. coli CFT073 (UPEC); assay: MIC, standard microdilution assay, growing UPEC; format: cell-based, Escherichia coli; details: Escherichia coli; E. coli, pH 7.4; CA-MHB; read-out: MIC (μM) CA-MHB
Experimental: (§1) Minimal inhibitory concentrations (MICs) were determined using a standard microdilution assay protocol. CA-MHB medium buffered with 40 mM HEPES (pH 7.4) was used to determine the MICs for UPEC, P. aeruginosa, and S. aureus. […] MICs for UPEC were also determined in LPM buffered with 30 mM MES (pH 5.5). For S. flexneri, MICs were determined in tryptic soy broth (TSB). The assay was performed in triplicates.

[2] = system: P. aeruginosa DSM1117; assay: MIC, standard microdilution assay, growing P. aeruginosa; format: cell-based, Pseudomonas aeruginosa; details: Pseudomonas aeruginosa, DSM1117; P. aeruginosa; CA-MHB pH 7.4; read-out: MIC (μM) CA-MHB
Experimental: as §1

[3] = system: S. aureus DSM2569; assay: MIC, standard microdilution assay, growing S. aureus; format: cell-based, Staphylococcus aureus; details: Staphylococcus aureus, DSM2569; S. aureus; CA-MHB pH 7.4; read-out: MIC (μM) CA-MHB
Experimental: as §1

[4] = system: S. flexneri 5a M90T; assay: MIC in tryptic soy broth, S. flexneri; format: cell-based, Shigella flexneri; details: Shigella flexneri, 5AM90T, read-out: MIC (μM) TSB
Experimental: as §1

[5] = system: non-growing UPEC CFT073; assay: Dilution-regrowth assay (screen, hit validation, dose-response) on stationary-phase UPEC; format: cell-based, Escherichia coli
Experimental: (§2) The cultures were incubated for 24 h in non-baffled Erlenmeyer flasks at 37 °C with shaking at 200 rpm.
The high-throughput screening (HTS) procedure was based on the protocol by Hazan and colleagues[15] and conducted at the Chemical Biology Consortium Sweden (CBCS) screening facility. […] Each plate included eight wells with 200 nl of 10 mM gatifloxacin, finafloxacin, and kanamycin solutions, along with 8-wells containing 200 nl of DMSO as controls. After 24 h incubation,100 μl of the culture was dispensed into each well of the 384-well plates for screening at a final concentration of 20 μM. The plates were sealed with parafilm and incubated at 37 °C for 24 h in closed humidified boxes, with wet paper towels added to prevent evaporation. […] The plates were incubated at 37 °C for 6 h in humidified boxes, then OD600 was measured using a microplate reader.
For hit validation, bacteria were cultivated, and the dilution-regrowth assay was conducted following the same protocol used in the primary screen. Hit compounds were dispensed into 384-well plates using the Echo® (Labcyte) system, with 200, 100, or 50 nl of a 10 mM solution in DMSO added per well, yielding final screening concentrations of 20, 10, and 5 μM, respectively. OD600 values of regrowing samples were normalized to the mean OD600 of the drug-free control. The testing was conducted in two replicates.
For UPEC, dose–response analysis was conducted at the CBCS screening facility. Bacteria were cultivated, and the dilution-regrowth assay was performed according to the HTS protocol. Compounds were dispensed into 384-well plates using the Echo® (Labcyte) system, and regrowth was assessed by measuring OD600 after 6 h of incubation at 37 °C in humidified boxes. Three biological replicates were performed.
(§3) Statistical significance of the drug effects was assessed using a one-way ANOVA followed by Dunnett’s test, comparing each treatment to the drug-free control. Statistical significance of the differences in chemical characteristics between the hit compounds and the Prestwick library was assessed using a Mann–Whitney test. Statistical significance was set at P ≤ 0.05. A five-parameter logistic equation was used for asymmetric sigmoidal curve fitting and for EC50 and IC50 determination. The Venn diagram in Fig. 1F was prepared using BioVenn web application. Characteristics of the chemical and physical properties of Prestwick library compounds were obtained from Supplementary Table S1 from reference. Characteristics of the hit compounds not included in the Prestwick library were retrieved from the PubChem database.

[6] = system: non-growing S. aureus DSM2569; assay: Dilution-regrowth assay (OD600, start-growth-time) on stationary-phase S. aureus; format: cell-based, Staphylococcus aureus; details: S. aureus
Experimental: The cultures were grown and treated for 24 h in 1:4 CA-MHB (pH 7.4).
This approach allowed us to capture the time when cultures reached a threshold optical density (start-growth-time, SGT[15]).
as §2
For P. aeruginosa and S. aureus, dose–response analysis was conducted in 96-well plates with a 200 μl assay volume, following the procedure used for screening assay validation experiments. […] Stock solutions were prepared and stored according to the manufacturers’ instructions, then diluted in 10% DMSO before use. Cultures were incubated for 24 h in 1:4 diluted CA-MHB medium under the same conditions used for UPEC cultivation. In preliminary experiments, each compound was tested at a concentration of 20 μM in the dilution-regrowth assay with 4 technical replicates. Regrowth was monitored using a microplate reader at 37 °C with continuous shaking, and OD600 was recorded every 20 min. The time at which OD600 exceeded the threshold of 0.12 was recorded as the Start_Growth-Time.
as §3

[7] = system: TC7 cells; assay: TC7 cell viability upon drug exposure, MTS assay; format: cell-based; details: at the MIC concentrations, 12 h, no bacteria
Experimental: TC7 cells were grown to confluence in transparent 96-well cell culture plates (TPP) in the same cell culture medium used for the in vitro infection assay. Just prior to the experiment, the medium was discarded, and the cells were washed twice with sterile PBS to remove any traces of medium or dead cells. […] The plate was incubated at 37 °C in a CO2 incubator for 12 h, under the same conditions as the infection assay.
The 3-(4,5-dimethylthiazol-2-yl)-5-(3-carboxymethoxyphenyl)-2-(4-sulfophenyl)-2H-tetrazolium (MTS) assay was performed using the CellTiter 96® AQueous One Solution Cell Proliferation Assay kit (Promega), according to the manufacturer’s instructions. Briefly, 20 μl of CellTiter 96 AQueous One Solution Reagent was added to each well, and the plate was incubated for 2 h at 37 °C in a CO2 incubator. The OD490 of the samples was measured using a Spark multimode plate reader (Tecan). The raw values were normalized to the control wells incubated with infection buffer only. The experiment was performed in duplicate.

[8] = system: E. coli CFT073 and BW25113; assay: Semapimod assay: killing and regrowth of stationary-phase E. coli in two media; format: cell-based, Escherichia coli; details: 1% LB diluted in PBS, 20 and 50 μM, 24 h
Experimental: E. coli CFT073 and BW25113 were grown in 3 ml of LB at 37 °C, shaking at 200 rpm for 16 h. The overnight cultures were then diluted either 1:100 into 40 ml of 1:4 diluted CA-MHB (40 mM HEPES, pH 7.4) or 1:10,000 into 40 ml of 1% LB in PBS and grown in 125 mL Erlenmeyer flasks for 24 h at 37 °C, shaking at 200 rpm. Following this, 1 ml aliquots of each culture were transferred to 1.5 ml test tubes, and semapimod was added at final concentrations of 20 μM and 50 μM. DMSO was added to drug-free controls. To quantify live bacteria before treatment, a sample of each culture was serially 10-fold diluted into PBS, and 10 μL drops were spot-plated onto LB agar. The closed test tubes were incubated for 24 h at 37 °C without shaking.
After treatment, the samples were diluted 2500-fold in two steps: a 50-fold dilution into PBS, followed by a 50-fold dilution into CA-MHB in a 96-well plate with a total volume of 200 μl per well. The 96-well plate was then incubated in a BioTek Synergy H1 plate reader at 37 °C with continuous shaking at medium speed for 22 h with a lid. OD600 was recorded every 20 min. Additionally, the treated samples were diluted 1:200 into LB in another 96-well plate and incubated in a BioTek Synergy Mx plate reader at 37 °C without shaking for 22 h, with OD600 recorded every hour. […]

[H]/N=C(\N/C(=N/[H])NCCCCCCNC(=N)NC(=N)Nc1ccc(Cl)cc1)Nc1ccc(Cl)cc1 [Chlorhexidine]
MIC [1]: 1 µM (≈ 0.505 µg/mL) | MIC [2]: 8 µM (≈ 4.04 µg/mL) | MIC [3]: 2 µM (≈ 1.01 µg/mL) | MIC [4]: 1 µM (≈ 0.505 µg/mL) | Regrowth, OD600 at 6h or 8h after dilution into drug-free medium (average) ([5]; E. coli in 1:4 CA-MHB (pH 7.4), drug concentration 0.25): 0.634 | Regrowth, OD600 at 6h or 8h after dilution into drug-free medium (average) ([5]; E. coli in 1:4 CA-MHB (pH 7.4), drug concentration 0.5): 0.632 | Regrowth, OD600 at 6h or 8h after dilution into drug-free medium (average) ([5]; E. coli in 1:4 CA-MHB (pH 7.4), drug concentration 1): 0.646 | Regrowth, OD600 at 6h or 8h after dilution into drug-free medium (average) ([5]; E. coli in 1:4 CA-MHB (pH 7.4), drug concentration 2.5): 0.634 | Regrowth, OD600 at 6h or 8h after dilution into drug-free medium (average) ([5]; E. coli in 1:4 CA-MHB (pH 7.4), drug concentration 5): 0.636 | Regrowth, OD600 at 6h or 8h after dilution into drug-free medium (average) ([5]; E. coli in 1:4 CA-MHB (pH 7.4), drug concentration 10): 0.585 | Regrowth, OD600 at 6h or 8h after dilution into drug-free medium (average) ([5]; E. coli in 1:4 CA-MHB (pH 7.4), drug concentration 30): 0.062 | Regrowth, OD600 at 6h or 8h after dilution into drug-free medium (average) ([5]; E. coli in LPM (pH 5.5), drug concentration 0.25): 0.602 | Regrowth, OD600 at 6h or 8h after dilution into drug-free medium (average) ([5]; E. coli in LPM (pH 5.5), drug concentration 0.5): 0.598 | Regrowth, OD600 at 6h or 8h after dilution into drug-free medium (average) ([5]; E. coli in LPM (pH 5.5), drug concentration 1): 0.611 | Regrowth, OD600 at 6h or 8h after dilution into drug-free medium (average) ([5]; E. coli in LPM (pH 5.5), drug concentration 2.5): 0.608 | Regrowth, OD600 at 6h or 8h after dilution into drug-free medium (average) ([5]; E. coli in LPM (pH 5.5), drug concentration 5): 0.621 | Regrowth, OD600 at 6h or 8h after dilution into drug-free medium (average) ([5]; E. coli in LPM (pH 5.5), drug concentration 10): 0.624 | Regrowth, OD600 at 6h or 8h after dilution into drug-free medium (average) ([5]; E. coli in LPM (pH 5.5), drug concentration 30): 0.633 | EC50 ([5]; Escherichia coli, E. coli, pH 7.4, regrowth delay of non-growing bacteria, 1:4 CA-MHB, 24 h treatment, OD600 6 h after 2500-fold dilution, read-out: EC50): 17.5 µM | activity against non-growing UPEC in LPM (pH 5.5) compared to 1:4 CA-MHB (pH 7.4) ([5]; regrowth delay and killing, Figs. 2 and 3): active at pH 7.4 and completely inactive in the acidic medium | Regrowth, OD600 at 6h or 8h after dilution into drug-free medium (average) ([6]; drug concentration 0.1): 0.684 | Regrowth, OD600 at 6h or 8h after dilution into drug-free medium (average) ([6]; drug concentration 0.5): 0.683 | Regrowth, OD600 at 6h or 8h after dilution into drug-free medium (average) ([6]; drug concentration 2.5): 0.676 | Regrowth, OD600 at 6h or 8h after dilution into drug-free medium (average) ([6]; drug concentration 10): 0.247 | EC50 ([6]; Staphylococcus aureus, DSM2569, regrowth delay of non-growing bacteria, 1:4 CA-MHB pH 7.4, 24 h treatment, OD600 8 h after dilution, read-out: EC50): 19.4 µM | toxicity to TC7 epithelial cells [7]: toxic

C/C(=N\NC(=N)N)c1cc(NC(=O)CCCCCCCCC(=O)Nc2cc(/C(C)=N/NC(=N)N)cc(/C(C)=N/NC(=N)N)c2)cc(/C(C)=N/NC(=N)N)c1 [semapimod]
activity in the dilution-regrowth screen ([5]; non-growing UPEC, 20 μM): not among our hits | bactericidal activity on stationary-phase E. coli [8]: strong bactericidal activity
